Measurements: US20130060013A1, “Compounds useful for treating neurodegenerative disorders” (SATORI PHARMACEUTICALS, INC., priority 2011, published 2013)

Key:
Format in all cases: cell-based
Settings in all cases: Homo sapiens, compound 5 hours at 37° C., 1% DMSO, percent vehicle fit to 4 parameter curve
Aβ-38 = Aβ-38 level in conditioned media of 2B7 cells (MSD 3-PLEX ELISA)
Procedure: (§1) Assays were conducted to determine the ability of a Compound of Formula I to modulate […], and Aβ-38.
(§2) Plates with capture antibodies were blocked for 1-2 hours at room temperature with 150 μL of the manufactures blocking reagent.
(§3) Cultured 2B7 cells in 96 well plate with 250 uL of media per well until confluent;
(§4) Prepared serial dilutions of compounds in DMSO at 100× the final desired concentration;
(§5) Washed wells with 2B7 cells 1× with 250 uL of media;
(§6) Diluted DMSO stocks 1:100 into media:
(§7) Added 250 μL of media containing compounds (1% DMSO) to wells with 2B7 cells for 5 hours at 37° C.
(§8) Diluted conditioned media: 1 part media with 1% DMSO and 1 part blocking buffer;
(§9) 150 μL of the 250 μL of conditioned media were used.
(§10) Standard Curve Sample Prep:
(§11) Prepared per manufacturer's protocol (see above)
(§12) Seven point standard curve samples were prepared that contained Aβ-42, Aβ-40, and Aβ-38. The highest concentration of Aβ-42 and Aβ-38 was 3,000 pg/mL and the highest concentration of Aβ-40 was 10,000 pg/mL. Subsequent serial dilutions were 1:3 and the final composition of each sample was 1 part blocking buffer and 1 part cell medium containing 1% DMSO.
(§13) Overnight Sample Incubation:
(§14) Blocked plates are washed 5× with MSD wash buffer with a plate washer
(§15) 25 uL of detection antibody and blocker G reagent in MSD blocking solution is added
(§16) 25 uL of samples (1 part conditioned media containing 1% DMSO and 1 part MSD blocking buffer) are then added.
(§17) plates are incubated overnight at 4 degrees C. or 2 hours at room temp
(§18) Wash wells 5× with MSD wash buffer
(§19) Added 150 μL 2×MSD read buffer
(§20) A-Beta peptide levels for each peptide are calculated from the standard curve using the MSD software provided with the MSD 2400 Imager. Percent vehicle values for each compound dosage were then calculated and fit to a 4 parameter curve generating IC50 values.

Aβ-40 = Aβ-40 level in conditioned media of 2B7 cells (MSD 3-PLEX ELISA)
Procedure: as §1
Human (6E10) Ab 3-PLEX elisa kits were purchased from Meso Scale Discovery Labs, 9328 Gaither Road, Gaithersburg, Md. 20877 (Catalog Number K15148E-3). Plates with capture antibodies were blocked for 1-2 hours at room temperature with 150 μL of the manufactures blocking reagent.
as §3, §4, §5, §6, §7, §8, §9, §10, §11, §12, §13, §14, §15, §16, §17, §18, §19, §20

Aβ-42 = Aβ-42 level in conditioned media of 2B7 cells (MSD 3-PLEX ELISA)
Procedure: as §1, §2, §3, §4, §5, §6, §7, §8, §9, §10, §11, §12, §13, §14, §15, §16, §17, §18, §19, §20

| SMILES | IC50 (Aβ-38) | IC50 (Aβ-40) | IC50 (Aβ-42) |
| --- | --- | --- | --- |
| CO[C@@H](C1C[C@@H](C)[C@H]2C(O1)[C@H](O)[C@@]1(C)C3CC[C@H]4C(C)(C)[C@@H](O[C@H]5CN(C)CCO5)CC[C@@]45CC35CC[C@]21C)C(C)(C)O (stereo partly shown) | 1 to 10 µM | 1 to 10 µM | 1 to 10 µM |
| CC(C)[C@@H](OC(=O)N1CCC1)[C@H]1C[C@@H](C)[C@H]2[C@H](O1)[C@H](O)[C@@]1(C)[C@@H]3CC[C@H]4C(C)(C)[C@@H](O[C@H]5CN(C(=O)CN6CCC6)CCO5)CCC45C[C@@]35CC[C@]21C (stereo partly shown) | < 1 µM | 1 to 10 µM | < 1 µM |
| CCO[C@@H]([C@H]1C[C@@H](C)[C@H]2[C@H](O1)[C@H](O)[C@@]1(C)[C@@H]3CC[C@H]4C(C)(C)[C@@H](O[C@H]5CN([C@H](C)C(=O)N(C)C)CCO5)CCC45C[C@@]35CC[C@]21C)C(C)(C)O (stereo partly shown) | < 1 µM | – | < 1 µM |
| CCO[C@@H]([C@H]1C[C@@H](C)[C@H]2[C@H](O1)[C@H](O)[C@]1(C)[C@@H]3CC[C@H]4C(C)(C)[C@@H](O[C@H]5CN([C@H](C)C(=O)N6CCC6)CCO5)CC[C@@]45C[C@@]35CC[C@@]21C)C(C)(C)O | < 1 µM | – | < 1 µM |
| CCO[C@@H]([C@H]1C[C@@H](C)[C@H]2[C@H](O1)[C@H](O)[C@]1(C)[C@@H]3CC[C@H]4C(C)(C)[C@@H](O[C@H]5CN([C@H](C)CN6CCC6)CCO5)CC[C@@]45C[C@@]35CC[C@@]21C)C(C)(C)O | < 1 µM | – | < 1 µM |
| CO[C@@H]([C@H]1C[C@@H](C)[C@H]2[C@H](O1)[C@H](O)[C@@]1(C)[C@@H]3CC[C@H]4C(C)(C)[C@@H](O[C@H]5CNCCO5)CCC45C[C@@]35CC[C@]21C)C(C)(C)OC (stereo partly shown) | < 1 µM | – | < 1 µM |
| CCO[C@@H]([C@H]1C[C@@H](C)[C@H]2[C@H](O1)[C@H](O)[C@@]1(C)[C@@H]3CC[C@H]4C(C)(C)[C@@H](O[C@H]5CNCCO5)CCC45C[C@@]35CC[C@]21C)C(C)(C)OCC (stereo partly shown) | 1 to 10 µM | – | 1 to 10 µM |
| CCO[C@@H]([C@H]1C[C@@H](C)[C@H]2[C@H](O1)[C@H](O)[C@@]1(C)[C@@H]3CC[C@H]4C(C)(C)[C@@H](O[C@H]5CN(Cc6cncs6)CCO5)CCC45C[C@@]35CC[C@]21C)C(C)(C)O (stereo partly shown) | 1 to 10 µM | – | < 1 µM |
| CCO[C@@H]([C@H]1C[C@@H](C)[C@H]2[C@H](O1)[C@H](O)[C@@]1(C)[C@@H]3CC[C@H]4C(C)(C)[C@@H](O[C@H]5CN(Cc6nccs6)CCO5)CCC45C[C@@]35CC[C@]21C)C(C)(C)O (stereo partly shown) | 1 to 10 µM | – | < 1 µM |
| CCO[C@@H]([C@H]1C[C@@H](C)[C@H]2[C@H](O1)[C@H](O)[C@@]1(C)[C@@H]3CC[C@H]4C(C)(C)[C@@H](O[C@H]5CN(Cc6cnn(C)c6)CCO5)CCC45C[C@@]35CC[C@]21C)C(C)(C)O (stereo partly shown) | 1 to 10 µM | – | < 1 µM |
| CNC1CN(C(=O)O[C@H]2CCC34C[C@]35CC[C@]3(C)[C@@H]6[C@H](O[C@@H]([C@H](OC)C(C)(C)O)C[C@H]6C)[C@H](O)[C@@]3(C)[C@@H]5CC[C@H]4C2(C)C)C1 (stereo partly shown) | 1 to 10 µM | – | < 1 µM |
| COCCN1CCO[C@@H](O[C@H]2CCC34C[C@]35CC[C@]3(C)[C@@H]6[C@H](O[C@@H]([C@H](OC)C(C)(C)OC)C[C@H]6C)[C@H](O)[C@@]3(C)[C@@H]5CC[C@H]4C2(C)C)C1 (stereo partly shown) | 1 to 10 µM | > 10 µM | < 1 µM |
| CCO[C@@H]([C@H]1C[C@@H](C)[C@H]2[C@H](O1)[C@H](O)[C@@]1(C)[C@@H]3CC[C@H]4C(C)(C)[C@@H](O[C@H]5CN(CC(=O)NCCOC)CCO5)CCC45C[C@@]35CC[C@]21C)C(C)(C)O (stereo partly shown) | 1 to 10 µM | 1 to 10 µM | < 1 µM |
| CO[C@@H]([C@H]1C[C@@H](C)[C@H]2[C@H](O1)[C@H](O)[C@@]1(C)[C@@H]3CC[C@H]4C(C)(C)[C@@H](O[C@H]5CN(CCN(C)C)CCO5)CCC45C[C@@]35CC[C@]21C)C(C)(C)OC (stereo partly shown) | < 1 µM | 1 to 10 µM | < 1 µM |
| CCO[C@@H]([C@H]1C[C@@H](C)[C@H]2[C@H](O1)[C@H](O)[C@@]1(C)[C@@H]3CC[C@H]4C(C)(C)[C@@H](O[C@H]5CN(c6cncc(F)c6)CCO5)CCC45C[C@@]35CC[C@]21C)C(C)(C)C (stereo partly shown) | 1 to 10 µM | > 10 µM | 1 to 10 µM |
| CCO[C@@H](C1C[C@@H](C)[C@H]2C(O1)[C@H](O)[C@@]1(C)C3CC[C@H]4C(C)(C)[C@@H](O[C@H]5CN(c6cnccn6)CCO5)CCC45C[C@@]35CC[C@]21C)C(C)(C)O (stereo partly shown) | < 1 µM | > 10 µM | < 1 µM |
| CCO[C@@H]([C@H]1C[C@@H](C)[C@H]2[C@H](O1)[C@H](O)[C@@]1(C)[C@@H]3CC[C@H]4C(C)(C)[C@@H](O[C@H]5CN(C6CN(C(C)=O)C6)CCO5)CCC45C[C@@]35CC[C@]21C)C(C)(C)O (stereo partly shown) | 1 to 10 µM | 1 to 10 µM | < 1 µM |
| CCO[C@@H](C1C[C@@H](C)[C@H]2C(O1)[C@H](O)[C@@]1(C)C3CC[C@H]4C(C)(C)[C@@H](O[C@H]5CN(c6ccccn6)CCO5)CCC45C[C@@]35CC[C@]21C)C(C)(C)O (stereo partly shown) | 1 to 10 µM | 1 to 10 µM | 1 to 10 µM |
| CCO[C@@H]([C@H]1C[C@@H](C)[C@H]2[C@H](O1)[C@H](O)[C@@]1(C)[C@@H]3CC[C@H]4C(C)(C)[C@@H](O[C@H]5CN(C6CN(C(C)C)C6)CCO5)CCC45C[C@@]35CC[C@]21C)C(C)(C)OC (stereo partly shown) | < 1 µM | 1 to 10 µM | < 1 µM |
| CCO[C@@H]([C@H]1C[C@@H](C)[C@H]2[C@H](O1)[C@H](O)[C@@]1(C)[C@@H]3CC[C@H]4C(C)(C)[C@@H](O[C@H]5CN(CC6CN(C)C6)CCO5)CCC45C[C@@]35CC[C@]21C)C(C)(C)OC (stereo partly shown) | < 1 µM | 1 to 10 µM | < 1 µM |
| CCO[C@@H](C1C[C@@H](C)[C@H]2C(O1)[C@H](O)[C@@]1(C)C3CC[C@H]4C(C)(C)[C@@H](O[C@H]5CN(CC(C)(C)N6CCOCC6)CCO5)CCC45C[C@@]35CC[C@]21C)C(C)(C)O (stereo partly shown) | < 1 µM | 1 to 10 µM | < 1 µM |
| CCO[C@@H]([C@H]1C[C@@H](C)[C@H]2[C@H](O1)[C@H](O)[C@@]1(C)[C@@H]3CC[C@H]4C(C)(C)[C@@H](O[C@H]5CN(C(C)(C)CN6CCOCC6)CCO5)CCC45C[C@@]35CC[C@]21C)C(C)(C)O (stereo partly shown) | < 1 µM | 1 to 10 µM | < 1 µM |
| CCO[C@@H]([C@H]1C[C@@H](C)[C@H]2[C@H](O1)[C@H](O)[C@@]1(C)[C@@H]3CC[C@H]4C(C)(C)[C@@H](O[C@H]5CN(C(C)(C)CN6CC(F)C6)CCO5)CCC45C[C@@]35CC[C@]21C)C(C)(C)O (stereo partly shown) | < 1 µM | 1 to 10 µM | < 1 µM |
| CC(=O)O[C@H]([C@H]1C[C@@H](C)[C@H]2[C@@H](O1)[C@@H](O)[C@@]1(C)[C@@H]3CC[C@H]4C(C)(C)[C@@H](O)CCC45C[C@@]35CC[C@]21C)C(C)(C)O (stereo partly shown) | – | 1 to 10 µM | 1 to 10 µM |
| CCO[C@@H]([C@H]1C[C@@H](C)[C@H]2[C@H](O1)[C@H](O)[C@@]1(C)[C@@H]3CC[C@H]4C(C)(C)[C@@H](OC(=O)C5CN(C6CCC6)C5)CCC45C[C@@]35CC[C@]21C)C(C)(C)O (stereo partly shown) | < 1 µM | 1 to 10 µM | < 1 µM |
| CCO[C@@H]([C@H]1C[C@@H](C)[C@H]2[C@H](O1)[C@H](O)[C@@]1(C)[C@@H]3CC[C@H]4C(C)(C)[C@@H](OC(=O)[C@H]5COCCN5C)CCC45C[C@@]35CC[C@]21C)C(C)(C)O (stereo partly shown) | < 1 µM | > 10 µM | < 1 µM |
| CCO[C@@H]([C@H]1C[C@@H](C)[C@H]2[C@H](O1)[C@H](O)[C@@]1(C)[C@@H]3CC[C@H]4C(C)(C)[C@@H](OC(=O)[C@@H]5COCCN5C)CCC45C[C@@]35CC[C@]21C)C(C)(C)O (stereo partly shown) | < 1 µM | 1 to 10 µM | < 1 µM |
| CCO[C@@H]([C@H]1C[C@@H](C)[C@H]2[C@H](O1)[C@H](O)[C@@]1(C)[C@@H]3CC[C@H]4C(C)(C)C(O[C@H]5CN(CCN(CCCOCCOCCOCCCNC(=O)CCCCC6SC[C@@H]7NC(=O)N[C@H]67)CCNC(=O)CCC6(C)N=N6)CCO5)CC[C@@]45CC35CC[C@]21C)C(C)(C)O (stereo partly shown) | – | 1 to 10 µM | < 1 µM |
